The source of these data is patent US20240335424A1, “COMPOSITIONS AND METHODS FOR TREATING LIPOMA PAIN” (Raziel Therapeutics Ltd., priority 2021, published 2024).

Entries after “also recorded” stand apart in the source; their conditions may differ.

Type in all cases: in vivo, human
Data set [1] concerns Dercum's disease (DD) lipomas. Briefly: Phase 2b clinical trial: lipoma pain by Comparative Pain Scale. Conditions: for Pain Score: Average per patient, Mean / Pain score: All lipomas, Mean: Comparative Pain Scale 0-10; for Pain score: All lipomas, Mean / Change from baseline in Pain Score: All lipomas, Relative Change from baseline, Mean: per lipoma analysis. The source says: The clinical trial described herein was a double-blind, randomized, placebo-controlled phase 2b clinical trial for the evaluation of safety and efficacy of Compound 1 (5-(3,6-dibromo-9H-carbazol-9-yl)-N,N,N-trimethylpentan-1-aminium, provided as a chloride salt, also designated Compound 1A), in subjects having Dercum's disease (DD) lipomas. Study Objectives. The primary objective was to evaluate the average percent reduction in lipoma height on day 84 after injection vs. baseline in the treatment group compared to the placebo group. Efficacy was determined by ultrasound assessment of the lipoma/nodule dimensions after treatment vs. baseline. The key secondary objective was assessment of lipoma/nodule associated pain using the Comparative Pain Scale. Safety was assessed by frequency of adverse events and by change-from-baseline values for vital signs, clinical laboratory and ECG. Study Design. This was a double blind, multi-center, randomized, placebo-controlled clinical trial in DD subjects having lipomas. A total of 38 DD patients were enrolled into the study. Patients were randomized in approximately a 1:1 ratio into either the intervention or the placebo arm. Twenty (20) subjects, having a total of 125 lipomas, were treated with Compound 1. Eighteen (18) subjects, having a total of 110 lipomas, were treated with placebo. Once the study ended and codes were opened, 84 days after dosing. Subjects received their study treatment on a single occasion in multiple injections. Dosing was calculated according to lipoma size (diameter) as determined by ultrasound. Subjects were dosed in accordance with Table 1. Injections were perpendicular (90°) to injected skin surface and spread randomly, at least 1 cm apart. At least 4 lipomas/nodules, preferably 6, and no more than 8, were injected per subject. Compound 1 dose per injection site was 5 mg, and a distance of 1-3 cm between injection points was maintained, to allow good distribution of Compound 1 within lipoma fat. A maximal dose of up to 240 mg/subject (a total of 48 injections of 5 mg/injection) was allowed in this study and the highest actual tested dose was 200 mg/subject (40 injections into 4-8 lipomas). A total of 20 patients were treated with Compound 1 and a total of 18 patients were treated with placebo. Primary endpoint was the average percent reduction in lipoma/noduleheight on day 84 after injection vs baseline-evaluated by ultrasound in the Compound 1 treatment group compared to the placebo group. Key secondary endpoint was reduction in local pain score per lipoma/nodule on Day 84 vs. baseline as measured by the Comparative Pain Scale. Comparative pain scale ranked the pain from a score from 0 to 10. A score of 0 indicated no pain, a score of 1-3 indicated minor pain, a score of 4-6 indicated moderate pain and a score of 7-10 indicated severe pain. Pain was compared between the intervention (Compound 1) and placebo groups on 2 levels-(1) on the patient level and (2) by lipomas, i.e. comparison between all injected lipomas before and after injection. Study Drug. Compound 1 was administered as a ready to use liquid for injection into subcutaneous fat, supplied in a 1 vial kit. Each vial contains 250 mg Compound 1/5 mL (50 mg/ml) solution Compound 1 in a vehicle comprised of water, propylene glycol and surfactant. The formulation is described in Table 2. Placebo was a solution comprised of vehicle only. Each injection of Compound 1 and placebo contained 0.1 ml. The vehicle was a ready-to-use liquid for injection into subcutaneous fat, supplied in a 1-vial kit. One vial contained 5 mL and had similar composition as the Compound 1 drug product, without the active substance. The components are: Tween-80, propylene glycol, benzyl alcohol, and water. The vehicle was manufactured and packed by […] (Israel) and complies with cGMP requirements. […]

In data set [2] the test system is Dercum's disease (DD) lipomas. Briefly: Phase 2b clinical trial: lipoma/nodule height by ultrasound. To be noted: day 84 after injection vs. baseline, compared to placebo. The source says:
The clinical trial described herein was a double-blind, randomized, placebo-controlled phase 2b clinical trial for the evaluation of safety and efficacy of Compound 1 (5-(3,6-dibromo-9H-carbazol-9-yl)-N,N,N-trimethylpentan-1-aminium, provided as a chloride salt, also designated Compound 1A), in subjects having Dercum's disease (DD) lipomas. Study Objectives. The primary objective was to evaluate the average percent reduction in lipoma height on day 84 after injection vs. baseline in the treatment group compared to the placebo group. Efficacy was determined by ultrasound assessment of the lipoma/nodule dimensions after treatment vs. baseline. The key secondary objective was assessment of lipoma/nodule associated pain using the Comparative Pain Scale. Safety was assessed by frequency of adverse events and by change-from-baseline values for vital signs, clinical laboratory and ECG. Study Design. […] Dosing was calculated according to lipoma size (diameter) as determined by ultrasound. […] Primary endpoint was the average percent reduction in lipoma/noduleheight on day 84 after injection vs baseline-evaluated by ultrasound in the Compound 1 treatment group compared to the placebo group. Key secondary endpoint was reduction in local pain score per lipoma/nodule on Day 84 vs. baseline as measured by the Comparative Pain Scale. […]

A short description of data set [3]: Phase 2b clinical trial: safety (adverse events, vital signs, clinical laboratory, ECG). Conditions: up to 200 mg/subject, subcutaneous injection into lipomas. The source says:
The clinical trial described herein was a double-blind, randomized, placebo-controlled phase 2b clinical trial for the evaluation of safety and efficacy of Compound 1 (5-(3,6-dibromo-9H-carbazol-9-yl)-N,N,N-trimethylpentan-1-aminium, provided as a chloride salt, also designated Compound 1A), in subjects having Dercum's disease (DD) lipomas.
Study Objectives. The primary objective was to evaluate the average percent reduction in lipoma height on day 84 after injection vs. baseline in the treatment group compared to the placebo group. Efficacy was determined by ultrasound assessment of the lipoma/nodule dimensions after treatment vs. baseline. The key secondary objective was assessment of lipoma/nodule associated pain using the Comparative Pain Scale. Safety was assessed by frequency of adverse events and by change-from-baseline values for vital signs, clinical laboratory and ECG.
Study Design. This was a double blind, multi-center, randomized, placebo-controlled clinical trial in DD subjects having lipomas. A total of 38 DD patients were enrolled into the study. Patients were randomized in approximately a 1:1 ratio into either the intervention or the placebo arm. Twenty (20) subjects, having a total of 125 lipomas, were treated with Compound 1. Eighteen (18) subjects, having a total of 110 lipomas, were treated with placebo. Once the study ended and codes were opened, 84 days after dosing.
At least 4 lipomas/nodules, preferably 6, and no more than 8, were injected per subject. Compound 1 dose per injection site was 5 mg, and a distance of 1-3 cm between injection points was maintained, to allow good distribution of Compound 1 within lipoma fat. A maximal dose of up to 240 mg/subject (a total of 48 injections of 5 mg/injection) was allowed in this study and the highest actual tested dose was 200 mg/subject (40 injections into 4-8 lipomas). A total of 20 patients were treated with Compound 1 and a total of 18 patients were treated with placebo.

[4] abbreviates: Day 84, compared to the placebo group.
[5] abbreviates: Visit 2 - Baseline/Treatment (Day 0), prior to injection.
The mark [6] stands for this setting: Visit 5 - Day 28 post treatment.
Where [7] appears, read: Visit 6 - Day 56 post treatment.
The mark [8] stands for this setting: Visit 7 - Day 84 post treatment.

Consider `C[N+](C)(C)CCCCCn1c2ccc(Br)cc2c2cc(Br)ccc21` [Compound 1, 5-(3,6-dibromo-9H-carbazol-9-yl)-N,N,N-trimethylpentan-1-aminium], for which the “average pain reduction per patient (by-patient analysis)” value in data set [1] (84 days after treatment, vs. 36.82% in placebo, P=0.98 as printed) worked out at 56.37%. Also, the “average pain reduction per lipoma (all-lipoma analysis)” value in data set [1] (84 days after treatment, vs. 37.50% in placebo, p=0.0004 t-test, p 0.079 mixed model) was 59.06%. In addition, in data set [1] (setting [4]), the “reduction in pain vs. placebo, by-lipoma analysis” value was “significant reduction in pain per lipoma; also recorded: statistically significant reduction in pain” and the “reduction of pain vs. placebo, per-patient analysis” value is recorded as “a trend for reduction of pain”. In data set [1] (setting [5]), the “Pain Score: Average per patient, Mean” value came to 4.89 and the “Pain score: All lipomas, Mean” value worked out at 4.86. Further, in data set [1] (setting [6]), the “Change from baseline in Pain Score: Average per patient, Relative Change from baseline, Mean” value was −41.76%; the “Pain Score: Average per patient, Mean” value is reported as 2.82; the “Pain score: All lipomas, Mean” value worked out at 2.72; the “Change from baseline in Pain Score: All lipomas, Relative Change from baseline, Mean” value is −41.55%. Also, in data set [1] (setting [7]), the “Change from baseline in Pain Score: Average per patient, Relative Change from baseline, Mean” value is −43.53%; the “Pain Score: Average per patient, Mean” value is 2.56; the “Pain score: All lipomas, Mean” value came out at 2.38; the “Change from baseline in Pain Score: All lipomas, Relative Change from baseline, Mean” value was −46.74%. Besides, in data set [1] (setting [8]), the “Change from baseline in Pain Score: Average per patient, Relative Change from baseline, Mean” value was −56.37%; the “Pain Score: Average per patient, Mean” value is listed as 2.03; the “Pain score: All lipomas, Mean” value was 1.86; the “Change from baseline in Pain Score: All lipomas, Relative Change from baseline, Mean” value is −59.06%. The “effect of a single dose injected into lipomas on lipoma-associated pain” value in data set [1] (single dose, via a single injection or multiple injections) is recorded as “significantly alleviates lipoma-associated pain”. Moreover, the “reduction in lipoma height” value in data set [2] was “not significant”. Also, in data set [3], the “adverse events, kind” value is “mostly injection site edema pain and pruritus”; the “changes in blood parameters” value was “no clinically significant changes in blood parameters”; the “serious adverse events” value is “no reported serious adverse events”; the “tolerability” value is listed as “generally well tolerated”.
